The results in this text go back to patent US20250049678A1, “COMPOUNDS ATTACHABLE TO SKIN” (Inkbox Ink Incorporated, priority 2021, published 2025).

A short description of data set [1]: UV/visible absorbance after reacting the compound with lysine to mimic skin binding. In kind it is physicochemical. To be noted: for visible color after reaction with lysine / UV-light absorption after reaction with lysine: lysine conjugate, mimic of skin binding; for visible color after reaction with lysine: absorbance at wavelengths above 410 nm; for UV-light absorption after reaction with lysine: absorbance at wavelengths below 410 nm; for shift in UV absorbance peak on reaction with lysine: compound versus its lysine conjugate; for absorbance properties / color of the dye compound after binding to lysine: versus the dye compound prior to conjugation with lysine, in solution, FIG. 3D; for UV blocking activity: FIG. 6, salicylic acid as such, attached to hydrogenated genipin anchor, and bound to skin mimic. An excerpt: A hydrogenated genipin derivative (compound 1) was conjugated with lysine to obtain compound 1-lysine conjugate:
The azo-dye compound of example 5 was conjugated with lysine to obtain a conjugate:
The compound of Example 7 was conjugated with lysine to obtain the lysine conjugate:
The OL compound of example 8 was conjugated with lysine to obtain OL-lysine conjugate: […]

For data set [2], the system named is skin substrate (a porcine skin explant). Description: Sunscreen application on skin substrate: UV-light absorption and retention after wiping, washing and scrubbing. An excerpt: When referring to protective groups hydrolysable under physiological conditions after application of the topical composition onto the skin here and elswhere in the dislcosure: Such groups are readily known to the skilled person and include, in particular acyl moieties such as optionally substituted acyl moieties comprising 1 to 30, more specifically 1 to 16, and in particular 1 to 12, carbon atoms; 0 to 12, more specifically 0 to 8, and in particular 0 to 6 oxygen atoms; 0 to 8, more specifically 0 to 6, and in particular 0 to 4 nitrogen atoms; 0 to 6, more specifically 0 to 4, and in particular 0 to 3 sulfur atoms; and 0 to 10, more specifically 0 to 8, and in particular 0 to 6 halogen atoms. Specific examples include C1-C18 acyl moieties, more specifically C1-C12 acyl moieties and in particular […]. When referring in this context to “physiological conditions” it should be understood that this in particular refers to the pH conditions encountered at the locus where the compound of formula (I) is supposed to bind to proteins in e.g. the stratum corneum and/or the epidermis of the (mammalian, in particular human) subject to be treated. […]

With `COC(=O)C1=CN(CCCCC(N)C(=O)O)C=C2C(COC(=O)c3ccccc3O)CCC12` (stereo not drawn), in data set [1], the “visible color after reaction with lysine” value is recorded as “no visible color” and the “UV-light absorption after reaction with lysine” value is listed as “strong UV-light absorption”.
Consider `C=CC1=CN(CCCCC(N)C(=O)O)C=C(C(=O)OC)C1CC(=O)OCCc1ccc(O)c(O)c1` (stereo not drawn), for which, in data set [1], the “visible color after reaction with lysine” value was “no visible color” and the “UV-light absorption after reaction with lysine” value is recorded as “strong UV-light absorption”.
On to `COC(=O)C1=COC(O)C2C(C)CCC12` (stereo not drawn) [Compound 1, methyl 1-hydroxy-7-methyl-1,4a,5,6,7,7a-hexahydrcyclopenta[c]pyran-4-carboxylate], for which, in data set [1], the “shift in UV absorbance peak on reaction with lysine” value (shortened to “shift in UV absorbance peak”) is on record as “small shift”, the “visible color after reaction with lysine” value is “no visible color” and the “UV-light absorption after reaction with lysine” value is “strong UV-absorption”.
On to `COC(=O)C1=COC(O)C2C(CO)CCC12` (stereo not drawn) [Compound 2, methyl 1-hydroxy-7-(hydroxymethyl)-1,4a,5,6,7,7a-hexahydrocyclopenta[c]pyran-4-carboxylate], for which, in data set [1], the “visible color after reaction with lysine” value is reported as “no visible color” and the “UV-light absorption after reaction with lysine” value is given as “strong UV-light absorption”.
`COC(=O)C1=COC(O)C2C(COC(=O)c3ccc(/N=N/c4ccccc4)cc3)CCC12` (stereo not drawn) [Example 5, methyl (E)-1-hydroxy-7-(((4-(phenyldiazenyl)benzoyl)oxy)methyl)-1,4a,5,6,7,7a-hexahydrocyclopenta[c]pyran-4-carboxylate]: the “absorbance properties / color of the dye compound after binding to lysine” value in data set [1] is given as “does not alter absorbance properties”; in data set [1] (listed as azo-dye-anchor molecule), “retains its original color”.
Regarding `COC(=O)C1=COC(O)C2C(COC(=O)c3ccccc3O)CCC12` (stereo not drawn) [Example 7, methyl 1-hydroxy-7-(((2-hydroxybenzoyl)oxy)methyl)-1,4a,5,6,7,7a-hexahydrocyclopenta[c]pyran-4-carboxylate], in data set [1], the UV blocking activity entry is listed as “retained”, the “shift in UV absorbance peak” value is “small shift in UV absorbance peak” and the “visible color after reaction with lysine” value is “no visible color is produced”.
As to `C/C=C1/[C@H](O)OC=C(C(=O)OC)[C@H]1CC(=O)OCCc1ccc(O)c(O)c1` [OL, methyl (4s,5e,6r)-4-[2-[2-(3,4-dihydroxyphenyl)ethoxy]-2-oxoethyl]-5-ethylidene-6-hydroxy-4h-pyran-3-carboxylate], in data set [1], the “shift in UV absorbance peak” value was “small shift in UV absorbance peak” and the “visible color after reaction with lysine” value is given as “almost no visible color”.
In the case of `COC(=O)C1=CN(CCCCC(N)C(=O)O)C=C2C(C)CCC12` (stereo not drawn) [compound 1-lysine conjugate], in data set [1], the “visible color after reaction with lysine” value is given as “no visible color” and the “UV-light absorption after reaction with lysine” value was “strong UV-light absorption”.
For the compound `CCCCC(CC)COC(=O)c1ccccc1O` (stereo not drawn) [octisalate], in data set [2] (50 mM solutions, 2 and 4 hours after application, wiped with a wet tissue at 4 hours, UV light 254 nm, FIG. 4), the “UV-light absorption on the skin substrate and removability after wiping” value is “easily removable from the skin”. Further, the “UV-light absorption / presence on the skin substrate after washing and scrubbing” value in data set [2] (24 and 26 hours total contact time, submerged in water for 2 hours and scrubbed vigorously, UV camera with UV-B filter, FIG. 5) is reported as “no longer present”.
Take `O=C(O)c1ccccc1O` [salicylic acid, reference compound]: in data set [1], the UV blocking activity result was “UV blocking agent”.
